Results reported in the kinase profiling compilation of Christmann-Franck et al. (2016).

Key:
Experiment in all cases: KINOMEscan competition binding
Details in all cases: compound 10.0 µM
MAPKAPK5 (human) = MAPKAPK5 (human) (UniProt Q8IW41)
MAPK6 (human) = MAPK6 (human) (UniProt Q16659)
STK4 (human) = STK4 (human) (UniProt Q13043)
NEK7 (human) = NEK7 (human) (UniProt Q8TDX7)
NTRK3 (human) = NTRK3 (human) (UniProt Q16288)
CDK15 (human) = CDK15 (human) (UniProt Q96Q40)
PKMYT1 (human) = PKMYT1 (human) (UniProt Q99640)
MAPK11 (human) = MAPK11 (human) (UniProt Q15759)
CDC42BPG (human) = CDC42BPG (human) (UniProt Q6DT37)
CDC2L2 (human) = CDC2L2 (human) (UniProt Q9UQ88)
NTRK1 (human) = NTRK1 (human) (UniProt P04629)
CIT (human) = CIT (human) (UniProt O14578)
MAPK15 (human) = MAPK15 (human) (UniProt Q8TD08)
ERBB3 (human) = ERBB3 (human) (UniProt P21860)
CDK7 (human) = CDK7 (human) (UniProt P50613)
STK17B (human) = STK17B (human) (UniProt O94768)
[1] = biological target: JAK2 JH1 catalytic (human) (UniProt O60674)
RPS6KA1 KD1 (human) = RPS6KA1 KD1 (human) (UniProt Q15418)
ALK (human) = ALK (human) (UniProt Q9UM73)
LTK (human) = LTK (human) (UniProt P29376)
RPS6KA5 KD2 (human) = RPS6KA5 KD2 (human) (UniProt O75582)
CSNK2A1 (human) = CSNK2A1 (human) (UniProt P68400)
ERBB4 (human) = ERBB4 (human) (UniProt Q15303)
MAPK3 (human) = MAPK3 (human) (UniProt P27361)
MAP3K11 (human) = MAP3K11 (human) (UniProt Q16584)
NEK6 (human) = NEK6 (human) (UniProt Q9HC98)
PLK2 (human) = PLK2 (human) (UniProt Q9NYY3)
RPS6KA4 KD1 (human) = RPS6KA4 KD1 (human) (UniProt O75676)
SYK (human) = SYK (human) (UniProt P43405)
PAK1 (human) = PAK1 (human) (UniProt Q13153)
CSNK2A2 (human) = CSNK2A2 (human) (UniProt P19784)
FLT1 (human) = FLT1 (human) (UniProt P17948)
[2] = biological target: JAK1 JH2 pseudokinase (human) (UniProt P23458)

STK4 (human), sequence (Q13043 whole entry, looked up): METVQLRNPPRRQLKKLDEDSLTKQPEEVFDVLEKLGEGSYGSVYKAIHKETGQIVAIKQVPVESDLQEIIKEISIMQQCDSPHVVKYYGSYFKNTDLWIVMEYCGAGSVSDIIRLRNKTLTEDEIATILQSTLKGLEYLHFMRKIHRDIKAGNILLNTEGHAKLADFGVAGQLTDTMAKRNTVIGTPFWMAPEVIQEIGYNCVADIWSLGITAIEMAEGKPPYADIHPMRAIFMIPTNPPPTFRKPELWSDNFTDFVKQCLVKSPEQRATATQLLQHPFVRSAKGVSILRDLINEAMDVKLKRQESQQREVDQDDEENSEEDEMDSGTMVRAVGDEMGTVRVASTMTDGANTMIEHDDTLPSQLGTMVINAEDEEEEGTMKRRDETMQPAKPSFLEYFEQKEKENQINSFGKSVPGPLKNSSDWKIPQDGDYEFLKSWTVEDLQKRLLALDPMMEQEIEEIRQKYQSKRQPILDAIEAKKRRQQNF
CDK15 (human), sequence (Q96Q40 whole entry, looked up): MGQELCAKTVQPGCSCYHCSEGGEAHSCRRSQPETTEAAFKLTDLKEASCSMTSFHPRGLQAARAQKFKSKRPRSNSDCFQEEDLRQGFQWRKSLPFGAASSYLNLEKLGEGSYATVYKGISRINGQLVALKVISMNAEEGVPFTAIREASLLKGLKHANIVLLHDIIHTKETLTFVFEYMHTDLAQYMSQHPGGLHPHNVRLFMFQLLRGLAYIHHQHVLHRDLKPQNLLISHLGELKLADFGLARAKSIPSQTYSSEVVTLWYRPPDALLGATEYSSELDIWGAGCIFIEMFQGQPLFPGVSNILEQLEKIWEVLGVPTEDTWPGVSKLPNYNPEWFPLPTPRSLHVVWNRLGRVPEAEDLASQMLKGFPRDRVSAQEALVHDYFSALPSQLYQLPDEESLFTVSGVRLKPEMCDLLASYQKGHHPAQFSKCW
RPS6KA5 KD2 (human), sequence (O75582 whole entry, looked up): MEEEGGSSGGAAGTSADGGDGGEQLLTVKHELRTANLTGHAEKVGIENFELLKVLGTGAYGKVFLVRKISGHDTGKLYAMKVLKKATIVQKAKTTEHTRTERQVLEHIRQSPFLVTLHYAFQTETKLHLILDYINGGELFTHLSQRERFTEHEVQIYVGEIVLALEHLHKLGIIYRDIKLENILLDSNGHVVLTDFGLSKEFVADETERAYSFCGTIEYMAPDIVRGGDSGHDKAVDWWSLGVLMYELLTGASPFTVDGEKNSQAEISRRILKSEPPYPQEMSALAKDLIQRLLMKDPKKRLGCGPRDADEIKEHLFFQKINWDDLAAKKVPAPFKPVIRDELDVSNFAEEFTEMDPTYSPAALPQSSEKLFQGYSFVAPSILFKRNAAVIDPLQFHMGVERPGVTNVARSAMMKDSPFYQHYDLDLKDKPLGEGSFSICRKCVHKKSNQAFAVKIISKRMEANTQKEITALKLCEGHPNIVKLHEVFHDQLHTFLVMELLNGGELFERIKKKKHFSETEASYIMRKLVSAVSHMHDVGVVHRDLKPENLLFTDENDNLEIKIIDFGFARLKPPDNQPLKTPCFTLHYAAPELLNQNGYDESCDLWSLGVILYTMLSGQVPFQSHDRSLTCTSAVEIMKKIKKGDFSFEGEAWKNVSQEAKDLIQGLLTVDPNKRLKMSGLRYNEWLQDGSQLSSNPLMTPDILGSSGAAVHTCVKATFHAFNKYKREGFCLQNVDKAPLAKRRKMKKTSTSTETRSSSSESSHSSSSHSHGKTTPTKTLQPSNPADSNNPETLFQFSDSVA
NTRK1 (human), sequence (P04629 whole entry, looked up): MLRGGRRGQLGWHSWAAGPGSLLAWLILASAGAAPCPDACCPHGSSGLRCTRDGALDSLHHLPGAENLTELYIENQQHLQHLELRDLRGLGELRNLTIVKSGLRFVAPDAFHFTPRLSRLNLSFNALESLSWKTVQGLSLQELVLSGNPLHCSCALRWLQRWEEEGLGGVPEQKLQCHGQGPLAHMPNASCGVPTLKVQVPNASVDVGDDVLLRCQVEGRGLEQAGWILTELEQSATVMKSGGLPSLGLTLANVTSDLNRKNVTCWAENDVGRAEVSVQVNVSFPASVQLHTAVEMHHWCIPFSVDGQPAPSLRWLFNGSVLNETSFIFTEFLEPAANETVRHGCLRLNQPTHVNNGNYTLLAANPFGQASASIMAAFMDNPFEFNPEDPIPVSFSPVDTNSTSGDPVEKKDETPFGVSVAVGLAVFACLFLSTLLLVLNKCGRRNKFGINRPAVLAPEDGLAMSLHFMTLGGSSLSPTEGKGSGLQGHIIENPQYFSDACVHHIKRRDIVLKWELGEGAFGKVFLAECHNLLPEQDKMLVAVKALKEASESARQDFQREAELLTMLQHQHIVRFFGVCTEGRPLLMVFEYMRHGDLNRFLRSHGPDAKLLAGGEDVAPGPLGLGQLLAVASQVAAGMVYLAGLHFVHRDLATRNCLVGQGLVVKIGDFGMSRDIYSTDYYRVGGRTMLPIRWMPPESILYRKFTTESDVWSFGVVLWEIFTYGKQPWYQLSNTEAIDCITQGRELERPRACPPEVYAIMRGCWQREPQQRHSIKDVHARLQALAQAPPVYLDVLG
PAK1 (human), sequence (Q13153 whole entry, looked up): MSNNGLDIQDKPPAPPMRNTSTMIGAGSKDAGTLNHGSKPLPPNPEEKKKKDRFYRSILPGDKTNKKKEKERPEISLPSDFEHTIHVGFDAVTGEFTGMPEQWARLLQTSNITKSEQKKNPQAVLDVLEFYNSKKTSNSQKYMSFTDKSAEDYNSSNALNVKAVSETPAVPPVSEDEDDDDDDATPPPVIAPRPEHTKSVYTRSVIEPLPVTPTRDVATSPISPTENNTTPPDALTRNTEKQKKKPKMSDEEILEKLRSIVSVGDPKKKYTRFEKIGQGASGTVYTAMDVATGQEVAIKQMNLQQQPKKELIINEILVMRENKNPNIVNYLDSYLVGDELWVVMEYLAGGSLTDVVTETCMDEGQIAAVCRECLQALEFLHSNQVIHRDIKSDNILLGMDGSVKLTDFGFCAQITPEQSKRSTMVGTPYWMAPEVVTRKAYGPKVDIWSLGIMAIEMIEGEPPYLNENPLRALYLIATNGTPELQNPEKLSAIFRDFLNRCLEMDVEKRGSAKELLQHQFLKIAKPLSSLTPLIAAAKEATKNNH
PLK2 (human), sequence (Q9NYY3 whole entry, looked up): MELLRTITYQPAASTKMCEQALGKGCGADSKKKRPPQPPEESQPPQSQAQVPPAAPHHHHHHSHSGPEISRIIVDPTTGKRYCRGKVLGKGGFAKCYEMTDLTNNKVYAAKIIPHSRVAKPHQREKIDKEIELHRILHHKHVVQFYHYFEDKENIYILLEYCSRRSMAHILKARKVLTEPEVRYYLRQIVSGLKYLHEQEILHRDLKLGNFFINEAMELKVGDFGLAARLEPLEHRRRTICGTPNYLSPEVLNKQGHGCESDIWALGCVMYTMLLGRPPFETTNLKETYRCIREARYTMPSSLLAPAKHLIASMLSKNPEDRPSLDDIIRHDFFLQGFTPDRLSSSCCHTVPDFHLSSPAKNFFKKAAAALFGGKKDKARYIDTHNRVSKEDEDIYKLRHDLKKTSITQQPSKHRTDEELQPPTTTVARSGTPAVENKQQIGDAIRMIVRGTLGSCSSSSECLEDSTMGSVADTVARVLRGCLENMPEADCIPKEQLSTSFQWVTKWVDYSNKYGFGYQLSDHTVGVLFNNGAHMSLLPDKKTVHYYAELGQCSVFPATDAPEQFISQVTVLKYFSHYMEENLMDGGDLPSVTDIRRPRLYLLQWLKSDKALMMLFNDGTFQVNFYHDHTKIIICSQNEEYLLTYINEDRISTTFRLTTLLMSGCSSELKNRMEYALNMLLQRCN
JAK2 JH1 catalytic (human), sequence (O60674 whole entry, looked up): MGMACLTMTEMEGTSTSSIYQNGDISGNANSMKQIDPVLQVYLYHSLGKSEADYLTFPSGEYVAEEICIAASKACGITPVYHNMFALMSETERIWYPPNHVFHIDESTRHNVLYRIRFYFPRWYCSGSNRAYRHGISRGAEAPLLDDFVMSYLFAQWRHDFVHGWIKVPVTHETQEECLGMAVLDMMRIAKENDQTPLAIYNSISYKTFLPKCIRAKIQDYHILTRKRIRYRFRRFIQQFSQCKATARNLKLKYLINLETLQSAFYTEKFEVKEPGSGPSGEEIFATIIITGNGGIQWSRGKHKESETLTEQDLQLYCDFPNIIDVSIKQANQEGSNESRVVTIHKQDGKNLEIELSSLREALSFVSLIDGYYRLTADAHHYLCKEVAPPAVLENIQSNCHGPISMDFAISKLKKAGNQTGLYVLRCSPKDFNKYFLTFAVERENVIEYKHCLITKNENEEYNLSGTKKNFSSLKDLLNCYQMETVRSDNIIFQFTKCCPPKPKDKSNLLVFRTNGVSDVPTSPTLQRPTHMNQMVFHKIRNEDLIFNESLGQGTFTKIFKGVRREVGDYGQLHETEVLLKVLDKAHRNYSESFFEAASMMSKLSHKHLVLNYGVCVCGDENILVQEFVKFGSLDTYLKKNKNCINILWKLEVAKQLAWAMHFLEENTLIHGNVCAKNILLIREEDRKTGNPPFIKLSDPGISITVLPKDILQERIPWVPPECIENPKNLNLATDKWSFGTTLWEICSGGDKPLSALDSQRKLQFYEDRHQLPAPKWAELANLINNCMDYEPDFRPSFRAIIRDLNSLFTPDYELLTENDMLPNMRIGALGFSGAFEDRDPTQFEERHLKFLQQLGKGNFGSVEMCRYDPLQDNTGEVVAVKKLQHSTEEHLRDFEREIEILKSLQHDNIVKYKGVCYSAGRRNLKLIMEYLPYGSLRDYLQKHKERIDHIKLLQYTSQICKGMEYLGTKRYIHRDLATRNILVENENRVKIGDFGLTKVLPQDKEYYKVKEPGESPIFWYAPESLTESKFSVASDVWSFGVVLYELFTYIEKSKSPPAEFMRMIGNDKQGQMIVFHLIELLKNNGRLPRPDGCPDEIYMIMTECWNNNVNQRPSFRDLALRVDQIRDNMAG

Row | SMILES | kinase still bound, per cent of control (MAPKAPK5 (human)) [%] | kinase still bound, per cent of control (MAPK6 (human)) [%] | kinase still bound, per cent of control (STK4 (human)) [%] | kinase still bound, per cent of control (NEK7 (human)) [%] | kinase still bound, per cent of control (CDK15 (human)) [%] | kinase still bound, per cent of control (PKMYT1 (human)) [%] | kinase still bound, per cent of control (MAPK11 (human)) [%] | kinase still bound, per cent of control (CDC2L2 (human)) [%] | kinase still bound, per cent of control (NTRK1 (human)) [%] | kinase still bound, per cent of control (CIT (human)) [%] | kinase still bound, per cent of control (MAPK15 (human)) [%] | kinase still bound, per cent of control (ERBB3 (human)) [%] | kinase still bound, per cent of control (CDK7 (human)) [%] | kinase still bound, per cent of control (STK17B (human)) [%] | kinase still bound, per cent of control [1] [%] | kinase still bound, per cent of control (LTK (human)) [%] | kinase still bound, per cent of control (RPS6KA5 KD2 (human)) [%] | kinase still bound, per cent of control (CSNK2A1 (human)) [%] | kinase still bound, per cent of control (MAPK3 (human)) [%] | kinase still bound, per cent of control (MAP3K11 (human)) [%] | other results
1 | COCC(=O)NC/C=C/c1ccc2ncnc(Nc3ccc(Oc4ccc(C)nc4)c(C)c3)c2c1 | 100 | 100 | 87 | 73 | 71 | 100 | 100 | 100 | 89 | 76 | 100 | 20 | 100 | 100 | 100 | 88 | 98 | 87 | 95 | 92 | kinase still bound, per cent of control (NTRK3 (human)): 93%; kinase still bound, per cent of control (CDC42BPG (human)): 90%; kinase still bound, per cent of control (RPS6KA1 KD1 (human)): 100%; kinase still bound, per cent of control (ALK (human)): 100%; kinase still bound, per cent of control (ERBB4 (human)): 0.9%; kinase still bound, per cent of control (NEK6 (human)): 100%; kinase still bound, per cent of control (PLK2 (human)): 100%; kinase still bound, per cent of control (RPS6KA4 KD1 (human)): 97%; kinase still bound, per cent of control (SYK (human)): 100%; kinase still bound, per cent of control (PAK1 (human)): 81%; kinase still bound, per cent of control (CSNK2A2 (human)): 100%; kinase still bound, per cent of control (FLT1 (human)): 88%
2 | C[C@@H](Oc1cc(-c2cnn(C3CCNCC3)c2)cnc1N)c1c(Cl)ccc(F)c1Cl | 68 | 90 | 3.9 | 6.7 | 73 | 100 | 100 | 0.35 | 0.1 | 62 | 80 | 81 | 1.2 | 100 | 1.4 | 0.3 | 95 | 65 | 100 | 81 | kinase still bound, per cent of control (CDC42BPG (human)): 48%; kinase still bound, per cent of control [2]: 1.8%; kinase still bound, per cent of control (NEK6 (human)): 27%; kinase still bound, per cent of control (PLK2 (human)): 73%; kinase still bound, per cent of control (RPS6KA4 KD1 (human)): 100%; kinase still bound, per cent of control (PAK1 (human)): 95%; kinase still bound, per cent of control (CSNK2A2 (human)): 55%; kinase still bound, per cent of control (FLT1 (human)): 25%
3 | CNC(=O)c1cc(Oc2ccc(NC(=O)Nc3ccc(Cl)c(C(F)(F)F)c3)cc2)ccn1 | 100 | 100 | 81 | 100 | 19 | 94 | 0.2 | 85 | 16 | 17 | 0.85 | 100 | 4.2 | 59 | 80 | 88 | 100 | 100 | 100 | 99 | kinase still bound, per cent of control [2]: 100%; kinase still bound, per cent of control (RPS6KA1 KD1 (human)): 82%; kinase still bound, per cent of control (ALK (human)): 69%; kinase still bound, per cent of control (ERBB4 (human)): 100%; kinase still bound, per cent of control (NEK6 (human)): 100%; kinase still bound, per cent of control (PLK2 (human)): 71%; kinase still bound, per cent of control (RPS6KA4 KD1 (human)): 85%; kinase still bound, per cent of control (SYK (human)): 88%; kinase still bound, per cent of control (PAK1 (human)): 62%; kinase still bound, per cent of control (CSNK2A2 (human)): 100%; kinase still bound, per cent of control (FLT1 (human)): 6.6%
